Converted amounts (≈) assume the structure as drawn. The source made the active and inactive calls. No cut-off for these calls is given here.
Key:
Rattus norvegicus [1] = test: (§1) Hepatoprotective activity in male Sprague-Dawley rat model of CCl4-induced ALI assessed as reduction in white granular fat in liver at 100 mg/kg, IG qd pretreated with compound for 7 days followed by CCl4 administration after 2 hrs post-compound treatment measured after 16 hrs post-CCl4 injection; type: functional, organism-based; details: time 186.0 hrs
[2] = AUC (0 to infinity) in overnight-fasted male Sprague-Dawley rat at 150 mg/kg, po measured up to 12 hrs by HPLC analysis; type: ADME, organism-based; details: in vivo
Rattus norvegicus [3] = test: as §1, with “acute” for “white granular”, “deposition” for “in liver”, “injection by oil red O staining based analysis” for “injection”; type: functional, organism-based; details: time 186.0 hrs
Mus musculus [4] = test: Anti-MASH activity in HFD-fed CCl4-treated male C57BL/6 mouse assessed as reduction in steatosis in liver at 150 mg/kg, po qd treated for 4 weeks by H and E/Oil red O staining based analysis; type: functional, organism-based
[5] = Tmax in overnight-fasted male Sprague-Dawley rat at 150 mg/kg, po measured up to 12 hrs by HPLC analysis; type: ADME, organism-based; details: in vivo
[6] = Cmax in overnight-fasted male Sprague-Dawley rat at 150 mg/kg, po measured up to 12 hrs by HPLC analysis; type: ADME, organism-based; details: in vivo
Mus musculus [7] = test: Anti-MASH activity in HFD-fed CCl4-treated male C57BL/6 mouse assessed as reduction in serum cholesterol level at 150 mg/kg, po qd treated for 4 weeks; type: functional, organism-based
L02 [8] = test: Anti-MASH activity in CCl4-stimulated human LO2 cells assessed as increase in cell viability up to 10 uM incubated for 24 hrs by MTT assay; type: functional, cell-based
[9] = Solubility in […] incubated for 10 mins; type: physicochemical
Mus musculus [10] = test: Anti-MASH activity in HFD-fed CCl4-treated male C57BL/6 mouse assessed as reduction in liver TNF-alpha level at 150 mg/kg, po qd treated for 4 weeks by ELISA; type: functional, organism-based
Mus musculus [11] = test: Anti-MASH activity in HFD-fed CCl4-treated male C57BL/6 mouse assessed as reduction in hepatocyte ballooning in liver at 150 mg/kg, po qd treated for 4 weeks by H and E/Oil red O staining based analysis; type: functional, organism-based
[12] = Antioxidant activity assessed as inhibition of superoxide anion scavenging activity incubated for 5 mins in presence of pyrogallol; type: functional
LX-2 [13] = test: Anti-MASH activity in TGF-beta-activated-human LX2 cells assessed as reduction in collagen I level incubated for 48 hrs by Western blot analysis; type: functional, cell-based; details: dose 10-40 µM
[14] = Antioxidant activity assessed as inhibition of DPPH free radical scavenging activity incubated for 30 mins under dark condition; type: functional
Mus musculus [15] = test: Anti-MASH activity in HFD-fed CCl4-treated male C57BL/6 mouse assessed as restoration of liver GSH level at 150 mg/kg, po qd treated for 4 weeks; type: functional, organism-based
L02 [16] = test: Anti-inflammatory activity in CCl4-stimulated human LO2 cells assessed as reduction in TNF-alpha mRNA level at 1 uM; type: functional, cell-based
Mus musculus [17] = test: Anti-MASH activity in HFD-fed CCl4-treated male C57BL/6 mouse assessed as reversal of hepatopancreas somatic indices at 150 mg/kg, po qd treated for 4 weeks; type: functional, organism-based
Mus musculus [18] = test: Anti-MASH activity in HFD-fed CCl4-treated male C57BL/6 mouse assessed as reduction in fat dyslipidemia at 150 mg/kg, po qd treated for 4 weeks; type: functional, organism-based
Mus musculus [19] = test: Anti-MASH activity in HFD-fed CCl4-treated male C57BL/6 mouse assessed as reduction in collagen deposition in liver at 150 mg/kg, po qd treated for 4 weeks by Masson staining based analysis; type: functional, organism-based
[20] = Terminal half life in overnight-fasted male Sprague-Dawley rat at 150 mg/kg, po measured up to 12 hrs by HPLC analysis; type: ADME, organism-based; details: in vivo, read-out: beta t1/2 (converted)
Mus musculus [21] = test: Anti-MASH activity in HFD-fed CCl4-treated male C57BL/6 mouse assessed as reduction in hepatic triglyceride level at 150 mg/kg, po qd treated for 4 weeks by ELISA; type: functional, organism-based
Hepatocyte [22] = test: Anti-inflammatory activity in CCl4-stimulated mouse primary hepatocytes assessed as reduction in TNF-alpha mRNA level at 1 uM; type: functional, cell-based
Rattus norvegicus [23] = test: as §1, with “vacuoles” for “white granular fat in liver”, “injection by H and E staining based analysis” for “injection”; type: functional, organism-based; details: time 186.0 hrs
Hepatocyte [24] = test: Anti-MASH activity in CCl4-stimulated mouse primary hepatocytes assessed as reduction in ROS level at 2.5 to 10 uM by DCFH-DA staining assay; type: functional, cell-based; details: dose 2.5-10 µM
[25] = Solubility in water incubated for 10 mins; type: physicochemical
Mus musculus [26] = test: Anti-MASH activity in HFD-fed CCl4-treated male C57BL/6 mouse assessed as reduction in serum HDL cholesterol level at 150 mg/kg, po qd treated for 4 weeks; type: functional, organism-based
Mus musculus [27] = test: Anti-MASH activity in HFD-fed CCl4-treated male C57BL/6 mouse assessed as restoration of serum AST level at 150 mg/kg, po qd treated for 4 weeks; type: functional, organism-based
LX-2 [28] = test: Anti-MASH activity in TGF-beta-activated-human LX2 cells assessed as reduction in fibronectin level incubated for 48 hrs by Western blot analysis; type: functional, cell-based; details: dose 10-40 µM
[29] = Oral bioavailability in overnight-fasted male Sprague-Dawley rat assessed as fold increase at 150 mg/kg measured up to 12 hrs by HPLC analysis relative to silybin; type: ADME, organism-based; details: in vivo
Mus musculus [30] = test: Anti-MASH activity in HFD-fed CCl4-treated male C57BL/6 mouse assessed as reversal of light color of liver at 150 mg/kg, po qd treated for 4 weeks; type: functional, organism-based
Mus musculus [31] = test: Anti-MASH activity in HFD-fed CCl4-treated male C57BL/6 mouse assessed as restoration of serum ALT level at 150 mg/kg, po qd treated for 4 weeks; type: functional, organism-based
Mus musculus [32] = test: Anti-MASH activity in HFD-fed CCl4-treated male C57BL/6 mouse assessed as reversal of mottled texture of liver at 150 mg/kg, po qd treated for 4 weeks; type: functional, organism-based
Rattus norvegicus [33] = test: Hepatoprotective activity in male Sprague-Dawley rat model of CCl4-induced ALI assessed as restoration of serum ALT level at 100 mg/kg, IG qd pretreated with compound for 7 days followed by CCl4 administration after 2 hrs post-compound treatment measured after 16 hrs post-CCl4 injection; type: functional, organism-based; details: time 186.0 hrs
L02 [34] = test: Anti-MASH activity in palmitate/oleate-stimulated human LO2 cells assessed as reduction in lipid accumulation at 10 to 40 uM incubated for 24 hrs by Oil Red O staining assay; type: functional, cell-based; details: dose 10-40 µM
[35] = Antioxidant activity assessed as clearing rate incubated for 5 mins in presence of pyrogallol by superoxide anion scavenging assay; type: functional
Mus musculus [36] = test: Anti-MASH activity in HFD-fed CCl4-treated male C57BL/6 mouse assessed as reduction in collagen I in liver at 150 mg/kg, po qd treated for 4 weeks by IHC analysis; type: functional, organism-based

## COc1cc([C@@H]2Oc3cc([C@H]4Oc5cc(O)cc(O)c5C(=O)[C@@H]4O)ccc3OC2CS)ccc1O (stereo partly specified)
Rattus norvegicus [1]
  Activity: Active
[2]
  AUC(0-inf): 11600 ng·h/mL
Rattus norvegicus [3]
  Activity: Active
Mus musculus [4]
  Activity: Active; Activity Was Better Than Silybin
[5]
  Tmax: 1.99 h
[6]
  Cmax: 4080 ng/mL
Mus musculus [7]
  Activity: Active
L02 [8]
  Activity: Active
[9]
  solubility: > 1000 mg/mL
Mus musculus [10]
  Activity: Active
Mus musculus [11]
  Activity: Active; Activity Was Better Than Silybin
[12]
  IC50: 28.1 µM
LX-2 [13]
  Activity: Dose-dependent-effect
[14]
  IC50: 33.4 µM
Mus musculus [15]
  Activity: Active; Compound Was More Significant Than Silybin
L02 [16]
  Activity: Active
Mus musculus [17]
  Activity: Active
Mus musculus [18]
  Activity: Active
Mus musculus [19]
  Activity: Active
[20]
  half-life: 1.55 h
Mus musculus [21]
  Activity: Active; Activity Was More Significant Than Silybin
Hepatocyte [22]
  Activity: Active
Rattus norvegicus [23]
  Activity: Active
Hepatocyte [24]
  Activity: Active
[25]
  solubility at 10 min: 0.25 mg/mL (≈ 0.501 mM)
Mus musculus [26]
  Activity: Active
Mus musculus [27]
  Activity: Active; Activity Was Better Than Silybin
LX-2 [28]
  Activity: Dose-dependent-effect
[29]
  fold change (FC): > 20
Mus musculus [30]
  Activity: Active; Activity Better Than Silybin
Mus musculus [31]
  Activity: Active; Activity Was Better Than Silybin
Mus musculus [32]
  Activity: Active; Activity Better Than Silybin
Rattus norvegicus [33]
  Activity: Active
L02 [34]
  Activity: Active
[35]
  Activity: 82.9%
Mus musculus [36]
  Activity: Active

From ChEMBL document CHEMBL6182935, “Discovery of a Novel Silybin Derivative for the Treatment of Metabolic Dysfunction-Associated Steatohepatitis” (J Med Chem, 2025)
